Results taken from patent US20190365843A1, “Antimicrobial Activity of Bioactive Compounds and Their Derivatives” (priority 2018, published 2019).

Assays:
E. coli ATCC 25922 = test: Agar diffusion growth inhibition zone, E. coli ATCC 25922; assay type: cell-based; details: Escherichia coli, 6 mm = no activity; for zone of inhibition at 100 mg/mL: ATCC25922, 100 mg; for zone of inhibition at 150 mg/mL: ATCC25922, 150 mg
Description: (§1) Among the bacterial agents tested Gram positive and Gram negative bacterial groups represented by Staphylococcus aureus and Enterococcus species and pathogenic members of Enterobacteriaceae, Vibronaceae, Aeromonadaceae, Pseudomonadaceae were tested. Freshly sub-cultured bacterial strains were inoculated into peptone water and incubated for 4 hours at 37° C. and adjusted to a turbidity of 0.5 (Gram Negative Bacilli), 1 (Gram Positive Cocci) and 4 (Pus cells, GNB, & few Budding yeast cells) Mc Farland standards (10^8 CFU/ml) respectively.
(§2) The different bioactive compounds and their derivatives were dissolved and diluted with solvents (DMSO), number of subsequent dilutions was performed to obtain different concentrations of the bioactive compounds and their derivatives. (Working Concentrations).
(§3) Agar well diffusion method is widely used to evaluate the antimicrobial activity of plants or other synthetic products. The suspension (microbial inoculum) was used to inoculate into Muller Hinton Agar Petri plates by lawn culture. Well (diameter 6 mm) were punched in the agar by sterile borer and filled with 50 μl of dissolved extracts. Plates were incubated in incubator at 37° C. for 24 hours and measured the growth inhibition zone diameters in mm compared with that of control (DMSO) showing no growth.
(§4) The bioactive compounds were tested with desired concentrations in 6 mm filter paper discs (Whatman, no. 3) were impregnated with 10 μL of each of the different dilutions. The discs were allowed to remain at room temperature until complete diluent evaporation and kept under refrigeration until ready to be used. 10 μL of diluents used to products were used as control. Tests were performed by Agar disk-diffusion testing method, which is the official method used in many clinical microbiology laboratories for routine antimicrobial susceptibility testing.
(§5) Similar to the procedure used in Agar well diffusion method, the suspension (microbial inoculum) was used to inoculate into Muller Hinton Agar Petri plates by lawn culture. Then, filter paper discs (about 6 mm in diameter), containing the test compound at a desired concentration, were placed on the agar surface. The Petri dishes were incubated under suitable incubation conditions.
(§6) Bioactive compounds showing zone of inhibition beyond the size of 6 mm are considered to be having an anti-microbial activity.

Enterococcus sp. = test: Agar diffusion growth inhibition zone, Enterococcus sp.; assay type: cell-based, Enterococcus species; details: 6 mm = no activity
Description: as §1, §2, §3, §4, §5, §6

ETEC = test: Agar diffusion growth inhibition zone, ETEC; assay type: cell-based, Enterotoxigenic E. coli; details: for inhibition of growth: ETEC; for zone of inhibition at 100000 µg/disc / zone of inhibition at 150000 µg/disc: Escherichia coli
Description: (§7) Agar well diffusion method is widely used to evaluate the antimicrobial activity of plants or other synthetic products. The suspension (microbial inoculum) was used to inoculate into Muller Hinton Agar Petri plates by lawn culture. Well (diameter 6 mm) were punched in the agar by sterile borer and filled with 50 μl of dissolved extracts. Plates were incubated in incubator at 37° C. for 24 hours and measured the growth inhibition zone diameters in mm compared with that of control (DMSO) showing no growth. The antimicrobial agent diffuses in the agar medium and inhibits the growth of the microbial strain tested (Valgas et al., (2016) Methods for in vitro evaluating antimicrobial activity: A review. Journal of Pharmaceutical Analysis. 6(2):71-9).
(§8) Similar to the procedure used in Agar well diffusion method, the suspension (microbial inoculum) was used to inoculate into Muller Hinton Agar Petri plates by lawn culture. Then, filter paper discs (about 6 mm in diameter), containing the test compound at a desired concentration, were placed on the agar surface. The Petri dishes were incubated under suitable incubation conditions. Generally, antimicrobial agent diffuses into the agar and inhibits germination and growth of the test microorganism and then the diameters of inhibition growth zones are measured (Valgas et al., (2007) Screening methods to determine antibacterial activity of natural products. Brazilian Journal of Microbiology. 38:369-80; Balouiri M et al., (2016) Methods for in vitro evaluating antimicrobial activity: A review. Journal of Pharmaceutical Analysis. 6(2):71-9).

Proteus sp. = test: Agar diffusion growth inhibition zone, Proteus sp.; assay type: cell-based, Proteus species; details: Proteus sp.; 150 mg; 6 mm = no activity
Description: as §1, §2, §3, §4, §5, §6

Pseudomonas sp. = test: Agar diffusion growth inhibition zone, Pseudomonas sp.; assay type: cell-based, Pseudomonas species; details: Pseudomonas
Description: as §7, §8

Aeromonas sp. = test: Agar diffusion growth inhibition zone, Aeromonas sp.; assay type: cell-based, Aeromonas species; details: Aeromonas sp., 6 mm = no activity
Description: as §1, §2, §3, §4, §5, §6

EAEC = test: Agar diffusion growth inhibition zone, EAEC; assay type: cell-based, Enteroaggregative E. coli; details: for zone of inhibition at 100 mg/mL / zone of inhibition at 150 mg/mL: Escherichia coli, 6 mm = no activity
Description: as §1, §2, §3, §4, §5, §6

S. aureus = test: Agar diffusion growth inhibition zone, S. aureus; assay type: cell-based, Staphylococcus aureus; details: Staphylococcus aureus, 6 mm = no activity
Description: as §1, §2, §3, §4, §5, §6

Salmonella typhimurium = test: Agar diffusion growth inhibition zone, Salmonella typhimurium; assay type: cell-based; details: Salmonella enterica, 6 mm = no activity
Description: as §1, §2, §3, §4, §5, §6

Vibrio cholera = test: Agar diffusion growth inhibition zone, Vibrio cholera; assay type: cell-based, Vibrio cholerae; details: Vibrio cholerae
Candida abicans = test: Agar diffusion growth inhibition zone, Candida abicans; assay type: cell-based, Candida albicans; details: 6 mm = no activity
Description: as §1, §2, §3, §4, §5, §6

Pleisiomonas sp. = test: Agar diffusion growth inhibition zone, Pleisiomonas sp.; assay type: cell-based, Pleisiomonas species; details: Pleisiomonas sp., 6 mm = no activity
Description: as §1, §2, §3, §4, §5, §6

Citrobacter sp. = test: Agar diffusion growth inhibition zone, Citrobacter sp.; assay type: cell-based, Citrobacter species; details: 6 mm = no activity
Description: as §1, §2, §3, §4, §5, §6

Shigella sp. = test: Agar diffusion growth inhibition zone, Shigella sp.; assay type: cell-based, Shigella species; details: Shigella
Description: as §7, §8

Klebsiella sp. = test: Agar diffusion growth inhibition zone, Klebsiella sp.; assay type: cell-based, Klebsiella species; details: 6 mm = no activity
Description: as §1, §2, §3, §4, §5, §6

| Compound | zone of inhibition at 100 mg/mL (E. coli ATCC 25922) [mm] | zone of inhibition at 150 mg/mL (E. coli ATCC 25922) [mm] | zone of inhibition at 100 mg/mL (Enterococcus sp.) [mm] | zone of inhibition at 150 mg/mL (Enterococcus sp.) [mm] | inhibition of growth (ETEC) | zone of inhibition at 100000 µg/disc (ETEC) [mm] | zone of inhibition at 150000 µg/disc (ETEC) [mm] | zone of inhibition at 150 mg/mL (Proteus sp.) [mm] | zone of inhibition at 100000 µg/disc (Pseudomonas sp.) [mm] | zone of inhibition at 150000 µg/disc (Pseudomonas sp.) [mm] | zone of inhibition at 100 mg/mL (Aeromonas sp.) [mm] | zone of inhibition at 150 mg/mL (Aeromonas sp.) [mm] | inhibition of growth (EAEC) | zone of inhibition at 100 mg/mL (EAEC) [mm] | zone of inhibition at 150 mg/mL (EAEC) [mm] | zone of inhibition at 100 mg/mL (S. aureus) [mm] | zone of inhibition at 150 mg/mL (S. aureus) [mm] | zone of inhibition at 100 mg/mL (Salmonella typhimurium) [mm] | zone of inhibition at 150 mg/mL (Salmonella typhimurium) [mm] | zone of inhibition at 100000 µg/disc (Vibrio cholera) [mm] | further results |
| --- | --- | --- | --- | --- | --- | --- | --- | --- | --- | --- | --- | --- | --- | --- | --- | --- | --- | --- | --- | --- | --- |
| COc1cc(/C=C/C(=O)COC(=O)/C=C/c2ccc(O)c(OC)c2)ccc1O [compound 5, Calebin-A] | 6 | 6 | 6 | 6 | significantly inhibited the growth | 11 | 11 | 6 | 6 | 6 | 6 | 6 | inhibited | 7 | 7 | 6 | 6 | 6 | 6 | 6 | zone of inhibition at 150000 µg/disc (Vibrio cholera): 6 mm; zone of inhibition at 100 mg/mL (Candida abicans): 6 mm; zone of inhibition at 150 mg/mL (Candida abicans): 6 mm; zone of inhibition at 100 mg/mL (Pleisiomonas sp.): 6 mm; zone of inhibition at 150 mg/mL (Pleisiomonas sp.): 6 mm; zone of inhibition at 100 mg/mL (Citrobacter sp.): 6 mm; zone of inhibition at 150 mg/mL (Citrobacter sp.): 6 mm; zone of inhibition at 100000 µg/disc (Shigella sp.): 6 mm; zone of inhibition at 150000 µg/disc (Shigella sp.): 6 mm; zone of inhibition at 100 mg/mL (Klebsiella sp.): 6 mm; zone of inhibition at 150 mg/mL (Klebsiella sp.): 6 mm |
| COc1cc(/C=C/C(=O)COC(=O)/C=C/c2ccc(OC(C)=O)c(OC)c2)ccc1OC(C)=O [compound 6, O,O′- Diacetylcalebin-A] | 6 | 6 | 6 | 6 | significantly inhibited the growth | 8 | 8 | 6 | 6 | 6 | 6 | 6 | inhibited | 7 | 7 | 6 | 6 | 6 | 6 | 6 | zone of inhibition at 150000 µg/disc (Vibrio cholera): 6 mm; zone of inhibition at 100 mg/mL (Candida abicans): 6 mm; zone of inhibition at 150 mg/mL (Candida abicans): 6 mm; zone of inhibition at 100 mg/mL (Pleisiomonas sp.): 6 mm; zone of inhibition at 150 mg/mL (Pleisiomonas sp.): 6 mm; zone of inhibition at 100 mg/mL (Citrobacter sp.): 6 mm; zone of inhibition at 150 mg/mL (Citrobacter sp.): 6 mm; zone of inhibition at 100000 µg/disc (Shigella sp.): 6 mm; zone of inhibition at 150000 µg/disc (Shigella sp.): 6 mm; zone of inhibition at 100 mg/mL (Klebsiella sp.): 6 mm; zone of inhibition at 150 mg/mL (Klebsiella sp.): 6 mm |
